Results: patent publication US20240423961A1, “1H-1,2,3-TRIAZOLE-4-CARBOXYLIC ACIDS FOR TREATMENT OF HYPEROXALURIA AND KIDNEY STONES” (CANTERO THERAPEUTICS, INC., priority 2021, published 2024)

How the values were obtained:
[1] = Phase 1 SAD/MAD study: safety and tolerability (adverse events, vital signs, ECG, laboratory tests); type: in vivo, human
Experimental: A Phase 1 clinical study is performed to assess the safety and dosing of Compound 1a. This Phase 1 study consists of two parts. In Part A, healthy adults randomized 3:1 (active:placebo) receive a single dose of orally administered Compound 1a or matching placebo in six (6) ascending dose groups. In Part B, healthy adults randomized 3:1 (active:placebo) received multiple doses of orally administered Compound 1a or matching placebo in six (6) ascending dose groups. Safety and tolerability were assessed by the incidence of adverse events, vital signs, electrocardiograms, and clinical laboratory tests. Pharmacokinetics and pharmacodynamics (changes in plasma and urine glycolate) were measured using validated bioanalytical assays.
Study Design: The study was approved by the Advarra Institutional Review Board (Columbia, MD). All participants provided written informed consent. The trial was conducted at a single center (Celerion, Tempe, Arizona) according to the Good Clinical Practice guidelines of the International Conference on Harmonization and the World Health Organization Declaration of Helsinki. The study was a randomized, double-blind, placebo-controlled, single and multiple ascending dose study. The primary objective of the study was to evaluate the safety and tolerability of single and multiple doses of Compound 1a administered to healthy adult volunteers. The secondary objectives were to characterize the pharmacokinetics (PK) of Compound 1a and to describe the pharmacodynamic (PD) properties in healthy adult volunteers. The study also evaluated the effect of food on the PK of Compound 1a.
Subject disposition: Six cohorts of 6 to 8 subjects each (N=up to 48) were administered single doses of 40, 120, 360, 1,000, 2,000, and 3,000 mg of Compound 1a in Part A under fasting conditions. Following a 2-week washout, subjects in the 1,000 mg cohort were administered a second 1,000 mg single dose following a high-fat breakfast. Six cohorts of 8 healthy subjects each were administered multiple doses of 75 mg […] (qd), 125 mg every 12 hours (q12 h), 500 mg q12 h, 500 mg qd, 750 mg qd, and 1,000 mg qd for 7 days in the MAD Part B (FIG. 1).

[2] = target: T1, glycolate oxidase (GO) (Homo sapiens, UniProt Q9UJM8); test: Pharmacokinetic-pharmacodynamic (PK/PD) modeling of GO inhibition; conditions: PK/PD modeling of Phase 1 data
T1 construct: healthy adult volunteers received single doses of Compound 1a; from tissue; host or cells: liver of healthy adult human volunteers (in vivo, Phase 1 study)
T1 sequence (Q9UJM8 1-370): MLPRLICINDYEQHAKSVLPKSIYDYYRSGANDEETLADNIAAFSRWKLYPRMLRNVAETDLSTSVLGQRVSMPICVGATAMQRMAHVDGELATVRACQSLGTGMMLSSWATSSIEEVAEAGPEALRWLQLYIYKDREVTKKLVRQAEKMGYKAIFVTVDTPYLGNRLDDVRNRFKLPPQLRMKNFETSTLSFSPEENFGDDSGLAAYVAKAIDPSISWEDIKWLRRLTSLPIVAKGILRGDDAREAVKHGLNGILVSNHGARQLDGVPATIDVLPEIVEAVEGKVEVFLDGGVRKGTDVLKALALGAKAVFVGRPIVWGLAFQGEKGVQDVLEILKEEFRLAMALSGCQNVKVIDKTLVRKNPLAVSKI
Description: This study provides dosing and safety information for Compound 1a in patients with PH1 and recurrent stone formers with hyperoxaluria due to hepatic overproduction of oxalate. Pharmacokinetic data supports once daily administration of Compound 1a and rapid onset of action. […] Details of the study are presented in Example 2.

[3] = Part A single ascending dose, 40 mg (n = 7)
[4] = Part A single ascending dose, 120 mg (n = 8)
[5] = Part A single ascending dose, 360 mg (n = 6)
[6] = Part A single ascending dose, 1,000 mg (n = 8)
[7] = Part A single ascending dose, 2,000 mg (n = 8)
[8] = Part B multiple ascending dose, 125 mg q12 h (n = 8)
[9] = Part B multiple ascending dose, 500 mg q12 h (n = 8)
[10] = Part B multiple ascending dose, 500 mg qd (n = 8)

In the case of `O.O=C([O-])c1nn[nH]c1Oc1ccc(-c2ccc(C3CC(F)(F)C3)cc2)cc1.[Na+]` [Compound 1a, sodium 5-((4′-(3,3-difluorocyclobutyl)-[1,1′-biphenyl]-4-yl)oxy)-1H-1,2,3-triazole-4-carboxylate monohydrate], the “AEs leading to study discontinuation” value ([1]; Part A and Part B) is reported as “no AEs leading to study discontinuation”, the dose-limiting toxicities ([1]; Part A and Part B) is reported as “No dose-limiting toxicities were observed” and the “intensity of AEs” value ([1]; Part A and Part B) is reported as “all were mild to moderate in intensity”. The “post dose electrocardiogram findings” value ([1]; Part A and Part B) was “nor were there clinically important post dose electrocardiogram findings”, the safety laboratory tests ([1]; Part A and Part B) was “no clinically significant changes or trends observed” and the “serious or severe AEs” value ([1]; Part A and Part B) was “No serious or severe AEs were reported”. For the same compound, the AEs [1, 3] was 10, the SAEs [1, 3] was 0 and the AEs [1, 4] was 1. For the same compound, the SAEs [1, 4] was 0, the AEs [1, 5] was 0 and the SAEs [1, 5] was 0. It also gave an AEs [1, 6] of 4, an SAEs [1, 6] of 0 and an AEs [1, 7] of 3. For the same compound, the SAEs [1, 7] was 0, the AEs [1, 8] was 6 and the SAEs [1, 8] was 0. For the same compound, the AEs [1, 9] was 12, the SAEs [1, 9] was 0 and the AEs [1, 10] was 1. For the same compound, the SAEs [1, 10] was 0, the tolerability ([1]; single doses up to 3,000 mg and multiple doses up to 2,000 mg per day (1,000 mg qd)) was “well tolerated” and the “inhibition of GO” value [2] was “up to 97%”.
